Results published in paper PMC8335354 (Biology of Reproduction, 2021).
“Also recorded” adds a separate entry of the source.

What was measured:
[1] = test system: mouse SCNT-derived embryos; assay: In vivo development of SCNT-derived embryos, two-cell transfer; conditions: for No. of implantations / No. of offspring / No. of placentas only / implantations (%) / offspring (%) / placentas only (%): 8 h treatment, two-cell transfer
[2] = test system: parthenogenetic embryos (zygotic gene activation); assay: Transcriptional activity; type: cell-based, mouse; conditions: 2 mM EU from 5 h to 24 h after activation
[3] = test system: pups derived from HDAC inhibitor-treated SCNT-derived embryos; assay: Body and placental weights of cloned pups at term; type: in vivo, mouse; conditions: 19.5 dpc, mean ± SD
[4] = test system: mouse SCNT-derived embryos; assay: In vivo development of SCNT-derived embryos, morula/blastocyst transfer; conditions: 8 h treatment
[5] = test system: mouse SCNT-derived embryos; assay: In vitro development of SCNT-derived embryos treated with HDAC inhibitors; type: cell-based
[6] = test system: mouse SCNT-derived embryos; conditions: cited from earlier work
[7] = inhibitor treatment 8 h, Table 4

O=C(CCCCC[C@@H]1NC(=O)[C@H]2CCCN2C(=O)[C@@H]2CCCCCCCCCC[C@@H](NC1=O)C(=O)N2)NO [Ky-309]
No. of implantations ([1]; 0.5 nM): 32
No. of offspring ([1]; 0.5 nM): 1
No. of placentas only ([1]; 0.5 nM): 0 (0)
implantations (%) ([1]; 0.5 nM): 38.1%
offspring (%) ([1]; 0.5 nM): 1.2%
placentas only (%) ([1]; 0.5 nM): 0 (0) %
No. of implantations ([1]; 1 nM): 21
No. of offspring ([1]; 1 nM): 0 (0)
No. of placentas only ([1]; 1 nM): 0 (0)
implantations (%) ([1]; 1 nM): 30.9%
offspring (%) ([1]; 1 nM): 0 (0) %
placentas only (%) ([1]; 1 nM): 0 (0) %
No. of implantations ([1]; 5 nM): 33
No. of offspring ([1]; 5 nM): 1
No. of placentas only ([1]; 5 nM): 2
implantations (%) ([1]; 5 nM): 50.0%
offspring (%) ([1]; 5 nM): 1.5%
placentas only (%) ([1]; 5 nM): 3.0%
EU fluorescence intensity / effect on ZGA at the two-cell stage [2]: no adverse effects on ZGA
Body weight at term (g ± SD) [3]: 1.61 ± 0.21 g
Placental weight at term (g ± SD) [3]: 0.31 ± 0.05 g
No. of cloned offspring ([4]; 5 nM): 0 (0)
No. of implantations ([4]; 5 nM): 4
No. of placentas only ([4]; 5 nM): 0 (0)
cloned offspring (%) ([4]; 5 nM): 0 (0) %
implantations (%) ([4]; 5 nM): 19.0%
placentas only (%) ([4]; 5 nM): 0 (0) %
No. of cloned offspring ([4]; 100 nM): 1
No. of implantations ([4]; 100 nM): 4
No. of placentas only ([4]; 100 nM): 1
cloned offspring (%) ([4]; 100 nM): 16.7%
implantations (%) ([4]; 100 nM): 66.7%
placentas only (%) ([4]; 100 nM): 16.7%
No. of two-cell embryos at 24 h ([5]; 0.5 nM, 8 h treatment, Table 2): 251
two-cell embryos at 24 h (%) ([5]; 0.5 nM, 8 h treatment, Table 2): 87.2%
No. of two-cell embryos at 24 h ([5]; 1 nM, 8 h treatment, Table 2): 190
two-cell embryos at 24 h (%) ([5]; 1 nM, 8 h treatment, Table 2): 76.9%
No. of four-cell embryos at 48 h ([5]; 5 nM, 8 h treatment, Table 1): 89
No. of morula/blast at 72 h ([5]; 5 nM, 8 h treatment, Table 1): 61
No. of two-cell embryos at 24 h ([5]; 5 nM, 8 h treatment, Table 1): 106
four-cell embryos at 48 h (% per 2 cells) ([5]; 5 nM, 8 h treatment, Table 1): 84.0%
morula/blast at 72 h (% per 2 cells) ([5]; 5 nM, 8 h treatment, Table 1): 57.5%
two-cell embryos at 24 h (%) ([5]; 5 nM, 8 h treatment, Table 1): 93.8%
No. of two-cell embryos at 24 h ([5]; 5 nM, 8 h treatment, Table 2): 66
two-cell embryos at 24 h (%) ([5]; 5 nM, 8 h treatment, Table 2): 90.4%
No. of four-cell embryos at 48 h ([5]; 100 nM, 8 h treatment, Table 1): 27
No. of morula/blast at 72 h ([5]; 100 nM, 8 h treatment, Table 1): 6
No. of two-cell embryos at 24 h ([5]; 100 nM, 8 h treatment, Table 1): 58
four-cell embryos at 48 h (% per 2 cells) ([5]; 100 nM, 8 h treatment, Table 1): 46.6%
morula/blast at 72 h (% per 2 cells) ([5]; 100 nM, 8 h treatment, Table 1): 10.3%
two-cell embryos at 24 h (%) ([5]; 100 nM, 8 h treatment, Table 1): 84.0%
developmental block / embryotoxicity in SCNT-derived embryos (in words) ([5]; treatment at the one-cell stage): embryonic toxicity; also recorded: moderate two-cell developmental block

CC(/C=C/C(=O)NO)=C\[C@@H](C)C(=O)c1ccc(N(C)C)cc1 [TSA, trichostatin A, reference compound]
pup rates per embryos transferred ([6]; mouse SCNT-derived embryos): more than 5%
No. of implantations ([1]; 5 nM): 69
No. of offspring ([1]; 5 nM): 8
No. of placentas only ([1]; 5 nM): 3
implantations (%) ([1]; 5 nM): 63.3%
offspring (%) ([1]; 5 nM): 7.3%
placentas only (%) ([1]; 5 nM): 2.8%
pup rates (birth rates of clones), range over both transfer series ([1]; morula/blastocyst and two-cell transfer experiments): 6.7–7.3%
EU fluorescence intensity / effect on ZGA at the two-cell stage [2]: no adverse effects on ZGA
Body weight at term (g ± SD) [3]: 1.57 ± 0.15 g
Placental weight at term (g ± SD) [3]: 0.28 ± 0.07 g
No. of cloned offspring ([4]; 5 nM): 1
No. of implantations ([4]; 5 nM): 6
No. of placentas only ([4]; 5 nM): 0 (0)
cloned offspring (%) ([4]; 5 nM): 6.7%
implantations (%) ([4]; 5 nM): 40.0%
placentas only (%) ([4]; 5 nM): 0 (0) %
No. of four-cell embryos at 48 h ([5]; 5 nM, 8 h treatment, Table 1): 45
No. of morula/blast at 72 h ([5]; 5 nM, 8 h treatment, Table 1): 32
No. of two-cell embryos at 24 h ([5]; 5 nM, 8 h treatment, Table 1): 49
four-cell embryos at 48 h (% per 2 cells) ([5]; 5 nM, 8 h treatment, Table 1): 91.8%
morula/blast at 72 h (% per 2 cells) ([5]; 5 nM, 8 h treatment, Table 1): 65.3%
two-cell embryos at 24 h (%) ([5]; 5 nM, 8 h treatment, Table 1): 76.5%
No. of two-cell embryos at 24 h ([5]; 5 nM, 8 h treatment, Table 2): 133
two-cell embryos at 24 h (%) ([5]; 5 nM, 8 h treatment, Table 2): 86.9%
Blastocysts at 96 h (% per two cells) [5, 7]: 68.2%
Morulae at 96 h (% per two cells) [5, 7]: 0 (0) %
No. of embryos at 96 h, Blastocysts [5, 7]: 15
No. of embryos at 96 h, Morulae [5, 7]: 0 (0)
No. of four-cell embryos at 48 h [5, 7]: 19
No. of two-cell embryos at 24 h [5, 7]: 22
four-cell embryos at 48 h (% per two cells) [5, 7]: 86.4%
two-cell embryos at 24 h (%) [5, 7]: 100%

CCCC(CCC)C(=O)O [VPA, valproic acid]
effect on mouse SCNT [6]: no effect
